Assays:
Secale cereale [1] = experiment: Change in alkylresorcinol homologue composition in dry shoots of etiolated Secale cereale (rye) seedlings grown from compound-treated seeds at 15 +/-2 degC assessed as C25:0 content at 46 uM by GC/EI-MS analysis (reference value: 0.11 mg/kg dry weight); type: functional
Secale cereale [2] = experiment: Change in alkylresorcinol homologue composition in dry shoots of green Secale cereale (rye) seedlings grown from compound-treated seeds at 29 +/-2 degC assessed as C21:1 content at 46 uM by GC/EI-MS analysis (reference value: 0.04 mg/kg dry weight); type: functional
Secale cereale [3] = experiment: Change in alkylresorcinol homologue composition in dry shoots of green Secale cereale (rye) seedlings grown from compound-treated seeds at 15 +/-2 degC assessed as C17:0 content at 46 uM by GC/EI-MS analysis (reference value: 1.46 mg/kg dry weight); type: functional
Secale cereale [4] = experiment: Change in alkylresorcinol homologue composition in dry shoots of green Secale cereale (rye) seedlings grown from compound-treated seeds at 15 +/-2 degC assessed as C17:1 content at 46 uM by GC/EI-MS analysis (reference value: 0.17 mg/kg dry weight); type: functional
Secale cereale [5] = experiment: Change in alkylresorcinol homologue composition in dry shoots of green Secale cereale (rye) seedlings grown from compound-treated seeds at 15 +/-2 degC assessed as C15:0 content at 46 uM by GC/EI-MS analysis (reference value: 0.24 mg/kg dry weight); type: functional
Secale cereale [6] = experiment: Toxicity against etiolated Secale cereale (rye) seedlings assessed as dry biomass of seedling grown at 15 +/-2 degC at 46 uM measured at 5 days after compound-treated seed germination (reference value: 1.14 +/-0.01 g); type: organism-based; conditions: in vivo, 120 h
Secale cereale [7] = experiment: Toxicity against etiolated Secale cereale (rye) seedlings assessed as fresh biomass of seedling grown at 22 +/-2 degC at 46 uM measured at 5 days after compound-treated seed germination (reference value: 21.43 +/-0.35 g); type: organism-based; conditions: in vivo, 120 h
Secale cereale [8] = experiment: Change in alkylresorcinol homologue composition in dry shoots of etiolated Secale cereale (rye) seedlings grown from compound-treated seeds at 29 +/-2 degC assessed as C17:0 content at 46 uM by GC/EI-MS analysis (reference value: 0.48 mg/kg dry weight); type: functional
Secale cereale [9] = experiment: Change in alkylresorcinol homologue composition in dry shoots of etiolated Secale cereale (rye) seedlings grown from compound-treated seeds at 29 +/-2 degC assessed as C15:0 content at 46 uM by GC/EI-MS analysis (reference value: 0.09 mg/kg dry weight); type: functional
Secale cereale [10] = experiment: Change in alkylresorcinol homologue composition in dry shoots of etiolated Secale cereale (rye) seedlings grown from compound-treated seeds at 29 +/-2 degC assessed as C25:0 content at 46 uM by GC/EI-MS analysis (reference value: 0.06 mg/kg dry weight); type: functional
Secale cereale [11] = experiment: Change in alkylresorcinol homologue composition in dry shoots of etiolated Secale cereale (rye) seedlings grown from compound-treated seeds at 22 +/-2 degC assessed as C23:0 content at 46 uM by GC/EI-MS analysis (reference value: 0.37 mg/kg dry weight); type: functional
Secale cereale [12] = experiment: Change in alkylresorcinol homologue composition in dry shoots of etiolated Secale cereale (rye) seedlings grown from compound-treated seeds at 29 +/-2 degC assessed as C23:1 content at 46 uM by GC/EI-MS analysis; type: functional
Secale cereale [13] = experiment: Change in alkylresorcinol homologue composition in dry shoots of etiolated Secale cereale (rye) seedlings grown from compound-treated seeds at 15 +/-2 degC assessed as C21:1 content at 46 uM by GC/EI-MS analysis (reference value: 0.34 mg/kg dry weight); type: functional
Secale cereale [14] = experiment: Change in alkylresorcinol homologue composition in dry shoots of etiolated Secale cereale (rye) seedlings grown from compound-treated seeds at 22 +/-2 degC assessed as C21:1 content at 46 uM by GC/EI-MS analysis (reference value: 0.12 mg/kg dry weight); type: functional
Secale cereale [15] = experiment: Change in alkylresorcinol homologue composition in dry shoots of etiolated Secale cereale (rye) seedlings grown from compound-treated seeds at 15 +/-2 degC assessed as C19:0 content at 46 uM by GC/EI-MS analysis (reference value: 1.77 mg/kg dry weight); type: functional
Secale cereale [16] = experiment: Change in alkylresorcinol homologue composition in dry shoots of etiolated Secale cereale (rye) seedlings grown from compound-treated seeds at 22 +/-2 degC assessed as C19:0 content at 46 uM by GC/EI-MS analysis (reference value: 1.83 mg/kg dry weight); type: functional
Secale cereale [17] = experiment: Change in alkylresorcinol homologue composition in dry shoots of etiolated Secale cereale (rye) seedlings grown from compound-treated seeds at 29 +/-2 degC assessed as C19:0 content at 46 uM by GC/EI-MS analysis (reference value: 1.06 mg/kg dry weight); type: functional
Secale cereale [18] = experiment: Change in alkylresorcinol homologue composition in dry shoots of etiolated Secale cereale (rye) seedlings grown from compound-treated seeds at 29 +/-2 degC assessed as C19:1 content at 46 uM by GC/EI-MS analysis (Rvb =0.09 mg/kg dry weight); type: functional
Secale cereale [19] = experiment: Change in alkylresorcinol content in dry shoots of etiolated Secale cereale (rye) seedlings grown from compound-treated seeds at 29 +/-2 degC at 46 uM by thin layer chromatography (reference value: 3.03 +/-0.02 mg/kg dry weight); type: functional
Secale cereale [20] = experiment: Change in alkylresorcinol homologue composition in dry shoots of green Secale cereale (rye) seedlings grown from compound-treated seeds at 22 +/-2 degC assessed as C21:0 content at 46 uM by GC/EI-MS analysis (reference value: 0.23 mg/kg dry weight); type: functional
Secale cereale [21] = experiment: Change in alkylresorcinol homologue composition in dry shoots of green Secale cereale (rye) seedlings grown from compound-treated seeds at 22 +/-2 degC assessed as C21:1 content at 46 uM by GC/EI-MS analysis (reference value: 0.09 mg/kg dry weight); type: functional
Secale cereale [22] = experiment: Change in alkylresorcinol homologue composition in dry shoots of green Secale cereale (rye) seedlings grown from compound-treated seeds at 29 +/-2 degC assessed as C19:0 content at 46 uM by GC/EI-MS analysis (reference value: 0.48 mg/kg dry weight); type: functional

## CCSC(=O)N(CC)C1CCCCC1 [CYCLOATE]
Secale cereale [1]
  Activity: 0.1 mg/kg
Secale cereale [2]
  Activity: 0.38 mg/kg
Secale cereale [3]
  Activity: 2.75 mg/kg
Secale cereale [4]
  Activity: 0.34 mg/kg
Secale cereale [5]
  Activity: 0.75 mg/kg
Secale cereale [6]
  Activity: 0.92 g
Secale cereale [7]
  Activity: 6.92 g
Secale cereale [8]
  Activity: 5.52 mg/kg
Secale cereale [9]
  Activity: 0.72 mg/kg
Secale cereale [10]
  Activity: 0.23 mg/kg
Secale cereale [11]
  Activity: 0.3 mg/kg
Secale cereale [12]
  Activity: 0.07 mg/kg
Secale cereale [13]
  Activity: 0.43 mg/kg
Secale cereale [14]
  Activity: 0.11 mg/kg
Secale cereale [15]
  Activity: 2.64 mg/kg
Secale cereale [16]
  Activity: 0.7 mg/kg
Secale cereale [17]
  Activity: 3.74 mg/kg
Secale cereale [18]
  Activity: 1.2 mg/kg
Secale cereale [19]
  Activity: 14.34 mg/kg
Secale cereale [20]
  Activity: 0.05 mg/kg
Secale cereale [21]
  Activity: 0.05 mg/kg
Secale cereale [22]
  Activity: 3.88 mg/kg
